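1) Cells in 96-well plates. 2) Compound, 48 h, 5 concentrations. 3) Linear interpolation between surrounding doses. 4) Unreached endpoint = highest concentration. GI50: concentration for 50% inhibition of growth.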 Active and inactive are the calls of the source. Rule as the data show it: active = GI50 up to about 1.1 µM and inactive = higher.
Columns and labels:
Test in all cases: NCI tumour cell line growth inhibition, 48 h
OVCAR-5 = system: OVCAR-5
NCI-H522 = system: NCI-H522
MCF7 = system: MCF7
SK-OV-3 = system: SK-OV-3
SK-MEL-2 = system: SK-MEL-2
HCT-15 = system: HCT-15
786-0 = system: 786-0
Hs-578T = system: Hs-578T
OVCAR-8 = system: OVCAR-8
NCI/ADR-RES = system: NCI/ADR-RES
TK-10 = system: TK-10
SK-MEL-5 = system: SK-MEL-5
UO-31 = system: UO-31
NCI-H226 = system: NCI-H226
MOLT-4 = system: MOLT-4
ACHN = system: ACHN
RPMI-8226 = system: RPMI-8226
HCC 2998 = system: HCC 2998
UACC-257 = system: UACC-257
BT-549 = system: BT-549

Row | Compound | GI50 (OVCAR-5) | GI50 (NCI-H522) | GI50 (MCF7) | GI50 (SK-OV-3) | GI50 (SK-MEL-2) | GI50 (HCT-15) | GI50 (786-0) | GI50 (Hs-578T) | GI50 (OVCAR-8) | GI50 (NCI/ADR-RES) | GI50 (TK-10) | GI50 (SK-MEL-5) | GI50 (UO-31) | GI50 (NCI-H226) | GI50 (MOLT-4) | GI50 (ACHN) | GI50 (RPMI-8226) | GI50 (HCC 2998) | GI50 (UACC-257) | GI50 (BT-549)
1 | CCC(C)C(NC(=O)c1cccc2c(=O)c3ccccc3[nH]c12)C(=O)O (configuration not stated) | > 100 µM (inactive) | > 100 µM (inactive) | > 100 µM (inactive) | > 100 µM (inactive) | > 100 µM (inactive) | > 100 µM | > 100 µM (inactive) | > 100 µM (inactive) | > 100 µM (inactive) | > 100 µM (inactive) | > 100 µM (inactive) | > 100 µM (inactive) | 48.6 µM (inactive) | > 100 µM (inactive) | 82.6 µM (inactive) | 86.7 µM (inactive) | 57.1 µM (inactive) | – | – | –
2 | CC(C)(C)NCc1cc(Nc2ccnc3cc(Cl)ccc23)cc(-c2ccc(Cl)cc2)c1O | 4.68 µM (inactive) | 3.65 µM (inactive) | 1.6 µM (inactive) | 3.07 µM (inactive) | 2.24 µM (inactive) | 2.44 µM | 1.87 µM (inactive) | 3.43 µM (inactive) | 3.81 µM (inactive) | 3.05 µM (inactive) | 2.43 µM (inactive) | 1.77 µM (inactive) | 4.17 µM (inactive) | 6.12 µM (inactive) | 1.82 µM (inactive) | 4.29 µM (inactive) | 1.69 µM (inactive) | 2.21 µM (inactive) | 2.03 µM (inactive) | –
3 | CCC1C(c2cccc(OC)c2O)c2cc3c(cc2OC1N1CCCC1)OCO3 (configuration not stated) | 20.1 µM (inactive) | 10.7 µM (inactive) | 22.2 µM (inactive) | – | 17.1 µM (inactive) | 12.2 µM | 16.1 µM (inactive) | 3.75 µM (inactive) | 20.6 µM (inactive) | 15.7 µM (inactive) | 16.4 µM (inactive) | 10.4 µM (inactive) | 14.1 µM (inactive) | – | 12.8 µM (inactive) | 15 µM (inactive) | 12.6 µM (inactive) | 10 µM (inactive) | 17.8 µM (inactive) | –
4 | OCCSCCCSCCO | > 100 µM (inactive) | > 100 µM (inactive) | > 100 µM (inactive) | > 100 µM (inactive) | – | > 100 µM | > 100 µM (inactive) | – | > 100 µM (inactive) | > 100 µM (inactive) | > 100 µM (inactive) | > 100 µM (inactive) | > 100 µM (inactive) | – | 32.1 µM (inactive) | – | – | > 100 µM (inactive) | > 100 µM (inactive) | > 100 µM (inactive)
5 | C=C/C(C)=C\CC1[C@](C)(O)CC[C@H]2C(C)(C)C(=O)CC[C@]12C (some centres not stated) | > 100 µM (inactive) | 62.7 µM (inactive) | 60.4 µM (inactive) | – | > 100 µM (inactive) | 51.9 µM | > 100 µM (inactive) | > 100 µM (inactive) | > 100 µM (inactive) | 60 µM (inactive) | > 100 µM (inactive) | 44.4 µM (inactive) | 23.9 µM (inactive) | > 100 µM (inactive) | 19.1 µM (inactive) | > 100 µM (inactive) | 29 µM (inactive) | – | 64.4 µM (inactive) | –
6 | CCOC(=O)/C(C(=S)Nc1ccccc1)=C(/N)N1CCCC1 | > 100 µM (inactive) | > 100 µM (inactive) | 54.1 µM (inactive) | – | > 100 µM (inactive) | > 100 µM | > 100 µM (inactive) | 77.4 µM (inactive) | > 100 µM (inactive) | > 100 µM (inactive) | > 100 µM (inactive) | > 100 µM (inactive) | > 100 µM (inactive) | > 100 µM (inactive) | > 100 µM (inactive) | > 100 µM (inactive) | > 100 µM (inactive) | > 100 µM (inactive) | > 100 µM (inactive) | –
7 | O=[N+]([O-])c1cccc([N+](=O)[O-])c1Cl | 19.1 µM (inactive) | 12.6 µM (inactive) | 4.24 µM (inactive) | – | 21.8 µM (inactive) | 12.1 µM | 26.4 µM (inactive) | 27 µM (inactive) | 16.4 µM (inactive) | 21.7 µM (inactive) | 21.9 µM (inactive) | 16.4 µM (inactive) | 1.32 µM (inactive) | 27 µM (inactive) | 3.56 µM (inactive) | 14.7 µM (inactive) | 1.15 µM (inactive) | 1.47 µM (inactive) | 11 µM (inactive) | –
8 | C/C(=C\C(=N\NC(=N)N)c1ccccc1)c1ccccc1 | 0.64 µM (active) | 0.452 µM (active) | 0.321 µM (active) | 4.3 µM (inactive) | – | 1.99 µM | 0.843 µM (active) | 1.32 µM (inactive) | 1.24 µM (inactive) | 2.78 µM (inactive) | 1.17 µM (inactive) | 0.281 µM (active) | – | 1.15 µM (inactive) | 0.261 µM (active) | 0.2 µM (active) | 1.01 µM (active) | 0.26 µM (active) | – | –

Reference: ChEMBL document CHEMBL1201862, “PubChem BioAssay data set” (2004)
